# Measurements taken from patent US9771334B2, “Triketone compound and preparation method and use thereof” (SHANDONG CYNDA CHEMICAL CO., LTD., priority 2013, dated 2017).
# Test system: echinochloa crusgalli
# Test: Herbicidal activity, pot culture method (primary and secondary screening test)
# Type: in vivo
# Settings: dose 37.5 g/ha, sprayed at 3-leaf stage, investigated 15 days later
# Method in brief: (§1)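 Percent growth inhibition of weeds sprayed at the 3-leaf stage, 150 g/ha in the primary screen and a lower dose in the secondary screen, scored 15 days after treatment under greenhouse conditions.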
row,SMILES,"inhibition ratio, Echinochloa crusgalli [%]"
1,Cc1ccccc1-n1c(=O)c2cc(C(=O)C3=C(O)CCCC3=O)ccc2n(C)c1=O [Compound 20],50
2,Cn1c(=O)n(-c2ccccc2Cl)c(=O)c2cc(C(=O)C3=C(O)CC(C)(C)CC3=O)ccc21 [Compound 6],70
3,Cc1c(C(=O)C2=C(O)CC(C)(C)CC2=O)ccc2c1c(=O)n(-c1ccccc1C(F)(F)F)c(=O)n2C [Compound 91],65

# Same assay, conditions: dose 75 g/ha, sprayed at 3-leaf stage, investigated 15 days later
row,SMILES,"inhibition ratio, Echinochloa crusgalli [%]"
1,Cc1ccccc1-n1c(=O)c2cc(C(=O)C3=C(O)CCCC3=O)ccc2n(C)c1=O [Compound 20],60
2,Cn1c(=O)n(-c2ccccc2Cl)c(=O)c2cc(C(=O)C3=C(O)CC(C)(C)CC3=O)ccc21 [Compound 6],75
3,Cc1c(C(=O)C2=C(O)CC(C)(C)CC2=O)ccc2c1c(=O)n(-c1ccccc1C(F)(F)F)c(=O)n2C [Compound 91],90

# Same assay, conditions: primary screening, pot culture, 150 g/ha, sprayed at 3-leaf stage, result 15 days later
row,SMILES,"herbicidal activity inhibition ratio (%), Echinochloa crusgalli [%]"
1,Cc1ccccc1-n1c(=O)c2cc(C(=O)C3=C(O)CCCC3=O)ccc2n(C)c1=O [Compound 20],100
2,Cn1c(=O)n(-c2ccccc2Cl)c(=O)c2cc(C(=O)C3=C(O)CC(C)(C)CC3=O)ccc21 [Compound 6],80
3,Cc1c(C(=O)C2=C(O)CC(C)(C)CC2=O)ccc2c1c(=O)n(-c1ccccc1C(F)(F)F)c(=O)n2C [Compound 91],100

# Test system: eclipta prostrata
# Test: as above
# Type: in vivo
# Settings: dose 37.5 g/ha, sprayed at 3-leaf stage, investigated 15 days later
# Method in brief: as §1
row,SMILES,"inhibition ratio, Eclipta prostrata [%]"
1,Cc1ccccc1-n1c(=O)c2cc(C(=O)C3=C(O)CCCC3=O)ccc2n(C)c1=O [Compound 20],50
2,Cn1c(=O)n(-c2ccccc2Cl)c(=O)c2cc(C(=O)C3=C(O)CC(C)(C)CC3=O)ccc21 [Compound 6],70
3,Cc1c(C(=O)C2=C(O)CC(C)(C)CC2=O)ccc2c1c(=O)n(-c1ccccc1C(F)(F)F)c(=O)n2C [Compound 91],80

# Same assay, conditions: dose 75 g/ha, sprayed at 3-leaf stage, investigated 15 days later
row,SMILES,"inhibition ratio, Eclipta prostrata [%]"
1,Cc1ccccc1-n1c(=O)c2cc(C(=O)C3=C(O)CCCC3=O)ccc2n(C)c1=O [Compound 20],50
2,Cn1c(=O)n(-c2ccccc2Cl)c(=O)c2cc(C(=O)C3=C(O)CC(C)(C)CC3=O)ccc21 [Compound 6],70
3,Cc1c(C(=O)C2=C(O)CC(C)(C)CC2=O)ccc2c1c(=O)n(-c1ccccc1C(F)(F)F)c(=O)n2C [Compound 91],93

# Same assay, conditions: primary screening, pot culture, 150 g/ha, sprayed at 3-leaf stage, result 15 days later
row,SMILES,"herbicidal activity inhibition ratio (%), Eclipta prostrata [%]"
1,Cc1ccccc1-n1c(=O)c2cc(C(=O)C3=C(O)CCCC3=O)ccc2n(C)c1=O [Compound 20],95
2,Cn1c(=O)n(-c2ccccc2Cl)c(=O)c2cc(C(=O)C3=C(O)CC(C)(C)CC3=O)ccc21 [Compound 6],85
3,Cc1c(C(=O)C2=C(O)CC(C)(C)CC2=O)ccc2c1c(=O)n(-c1ccccc1C(F)(F)F)c(=O)n2C [Compound 91],100

# Test system: amaranthus retroflexus
# Test: as above
# Type: in vivo
# Settings: dose 37.5 g/ha, sprayed at 3-leaf stage, investigated 15 days later
# Method in brief: as §1
row,SMILES,"inhibition ratio, Amaranthus retroflexus [%]"
1,Cc1ccccc1-n1c(=O)c2cc(C(=O)C3=C(O)CCCC3=O)ccc2n(C)c1=O [Compound 20],50
2,Cn1c(=O)n(-c2ccccc2Cl)c(=O)c2cc(C(=O)C3=C(O)CC(C)(C)CC3=O)ccc21 [Compound 6],70
3,Cc1c(C(=O)C2=C(O)CC(C)(C)CC2=O)ccc2c1c(=O)n(-c1ccccc1C(F)(F)F)c(=O)n2C [Compound 91],60

# Same assay, conditions: dose 75 g/ha, sprayed at 3-leaf stage, investigated 15 days later
row,SMILES,"inhibition ratio, Amaranthus retroflexus [%]"
1,Cc1ccccc1-n1c(=O)c2cc(C(=O)C3=C(O)CCCC3=O)ccc2n(C)c1=O [Compound 20],60
2,Cn1c(=O)n(-c2ccccc2Cl)c(=O)c2cc(C(=O)C3=C(O)CC(C)(C)CC3=O)ccc21 [Compound 6],75
3,Cc1c(C(=O)C2=C(O)CC(C)(C)CC2=O)ccc2c1c(=O)n(-c1ccccc1C(F)(F)F)c(=O)n2C [Compound 91],80

# Same assay, conditions: primary screening, pot culture, 150 g/ha, sprayed at 3-leaf stage, result 15 days later
row,SMILES,"herbicidal activity inhibition ratio (%), Amaranthus retroflexus [%]"
1,Cc1ccccc1-n1c(=O)c2cc(C(=O)C3=C(O)CCCC3=O)ccc2n(C)c1=O [Compound 20],100
2,Cn1c(=O)n(-c2ccccc2Cl)c(=O)c2cc(C(=O)C3=C(O)CC(C)(C)CC3=O)ccc21 [Compound 6],80
3,Cc1c(C(=O)C2=C(O)CC(C)(C)CC2=O)ccc2c1c(=O)n(-c1ccccc1C(F)(F)F)c(=O)n2C [Compound 91],100

# Test system: abutilon theophrasti
# Test: as above
# Type: in vivo
# Settings: dose 37.5 g/ha, sprayed at 3-leaf stage, investigated 15 days later
# Method in brief: as §1
row,SMILES,"inhibition ratio, Abutilon theophrasti [%]"
1,Cc1ccccc1-n1c(=O)c2cc(C(=O)C3=C(O)CCCC3=O)ccc2n(C)c1=O [Compound 20],30
2,Cn1c(=O)n(-c2ccccc2Cl)c(=O)c2cc(C(=O)C3=C(O)CC(C)(C)CC3=O)ccc21 [Compound 6],70
3,Cc1c(C(=O)C2=C(O)CC(C)(C)CC2=O)ccc2c1c(=O)n(-c1ccccc1C(F)(F)F)c(=O)n2C [Compound 91],85

# Same assay, conditions: dose 75 g/ha, sprayed at 3-leaf stage, investigated 15 days later
row,SMILES,"inhibition ratio, Abutilon theophrasti [%]"
1,Cc1ccccc1-n1c(=O)c2cc(C(=O)C3=C(O)CCCC3=O)ccc2n(C)c1=O [Compound 20],85
2,Cn1c(=O)n(-c2ccccc2Cl)c(=O)c2cc(C(=O)C3=C(O)CC(C)(C)CC3=O)ccc21 [Compound 6],70
3,Cc1c(C(=O)C2=C(O)CC(C)(C)CC2=O)ccc2c1c(=O)n(-c1ccccc1C(F)(F)F)c(=O)n2C [Compound 91],93

# Same assay, conditions: primary screening, pot culture, 150 g/ha, sprayed at 3-leaf stage, result 15 days later
row,SMILES,"herbicidal activity inhibition ratio (%), Abutilon theophrasti [%]"
1,Cc1ccccc1-n1c(=O)c2cc(C(=O)C3=C(O)CCCC3=O)ccc2n(C)c1=O [Compound 20],100
2,Cn1c(=O)n(-c2ccccc2Cl)c(=O)c2cc(C(=O)C3=C(O)CC(C)(C)CC3=O)ccc21 [Compound 6],100
3,Cc1c(C(=O)C2=C(O)CC(C)(C)CC2=O)ccc2c1c(=O)n(-c1ccccc1C(F)(F)F)c(=O)n2C [Compound 91],100

# Test system: setaria viridis
# Test: as above
# Type: in vivo
# Settings: dose 37.5 g/ha, sprayed at 3-leaf stage, investigated 15 days later
# Method in brief: as §1
row,SMILES,"inhibition ratio, Setaria viridis [%]"
1,Cc1ccccc1-n1c(=O)c2cc(C(=O)C3=C(O)CCCC3=O)ccc2n(C)c1=O [Compound 20],50
2,Cn1c(=O)n(-c2ccccc2Cl)c(=O)c2cc(C(=O)C3=C(O)CC(C)(C)CC3=O)ccc21 [Compound 6],60
3,Cc1c(C(=O)C2=C(O)CC(C)(C)CC2=O)ccc2c1c(=O)n(-c1ccccc1C(F)(F)F)c(=O)n2C [Compound 91],100

# Same assay, conditions: dose 75 g/ha, sprayed at 3-leaf stage, investigated 15 days later
row,SMILES,"inhibition ratio, Setaria viridis [%]"
1,Cc1ccccc1-n1c(=O)c2cc(C(=O)C3=C(O)CCCC3=O)ccc2n(C)c1=O [Compound 20],70
2,Cn1c(=O)n(-c2ccccc2Cl)c(=O)c2cc(C(=O)C3=C(O)CC(C)(C)CC3=O)ccc21 [Compound 6],60
3,Cc1c(C(=O)C2=C(O)CC(C)(C)CC2=O)ccc2c1c(=O)n(-c1ccccc1C(F)(F)F)c(=O)n2C [Compound 91],100

# Same assay, conditions: primary screening, pot culture, 150 g/ha, sprayed at 3-leaf stage, result 15 days later
row,SMILES,"herbicidal activity inhibition ratio (%), Setaria viridis [%]"
1,Cc1ccccc1-n1c(=O)c2cc(C(=O)C3=C(O)CCCC3=O)ccc2n(C)c1=O [Compound 20],100
2,Cn1c(=O)n(-c2ccccc2Cl)c(=O)c2cc(C(=O)C3=C(O)CC(C)(C)CC3=O)ccc21 [Compound 6],90
3,Cc1c(C(=O)C2=C(O)CC(C)(C)CC2=O)ccc2c1c(=O)n(-c1ccccc1C(F)(F)F)c(=O)n2C [Compound 91],100

# Test system: digitaria sanguinalis
# Test: as above
# Type: in vivo
# Settings: dose 37.5 g/ha, sprayed at 3-leaf stage, investigated 15 days later
# Method in brief: as §1
row,SMILES,"inhibition ratio, Digitaria sanguinalis [%]"
1,Cc1ccccc1-n1c(=O)c2cc(C(=O)C3=C(O)CCCC3=O)ccc2n(C)c1=O [Compound 20],40
2,Cn1c(=O)n(-c2ccccc2Cl)c(=O)c2cc(C(=O)C3=C(O)CC(C)(C)CC3=O)ccc21 [Compound 6],60
3,Cc1c(C(=O)C2=C(O)CC(C)(C)CC2=O)ccc2c1c(=O)n(-c1ccccc1C(F)(F)F)c(=O)n2C [Compound 91],70

# Same assay, conditions: dose 75 g/ha, sprayed at 3-leaf stage, investigated 15 days later
row,SMILES,"inhibition ratio, Digitaria sanguinalis [%]"
1,Cc1ccccc1-n1c(=O)c2cc(C(=O)C3=C(O)CCCC3=O)ccc2n(C)c1=O [Compound 20],70
2,Cn1c(=O)n(-c2ccccc2Cl)c(=O)c2cc(C(=O)C3=C(O)CC(C)(C)CC3=O)ccc21 [Compound 6],70
3,Cc1c(C(=O)C2=C(O)CC(C)(C)CC2=O)ccc2c1c(=O)n(-c1ccccc1C(F)(F)F)c(=O)n2C [Compound 91],90

# Same assay, conditions: primary screening, pot culture, 150 g/ha, sprayed at 3-leaf stage, result 15 days later
row,SMILES,"herbicidal activity inhibition ratio (%), Digitaria sanguinalis [%]"
1,Cc1ccccc1-n1c(=O)c2cc(C(=O)C3=C(O)CCCC3=O)ccc2n(C)c1=O [Compound 20],100
2,Cn1c(=O)n(-c2ccccc2Cl)c(=O)c2cc(C(=O)C3=C(O)CC(C)(C)CC3=O)ccc21 [Compound 6],75
3,Cc1c(C(=O)C2=C(O)CC(C)(C)CC2=O)ccc2c1c(=O)n(-c1ccccc1C(F)(F)F)c(=O)n2C [Compound 91],100

# Test system: maize
# Test: Crop safety test (pot culture method)
# Type: in vivo
# Settings: dose 75 g/ha, plants with about 4-5 leaves, investigated 15 days later
# From the text: (§2) This test example is for describing crop safety of the compound with a structure shown in Formula (1). Crop safety test method (pot culture method): The test targets are wheat and maize. Take flowerpots with an inner diameter of 12 cm, put composite soil (vegetable garden soil:seedling matrix=1:2, v/v) into them till ¾ of flowerpot height, directly sow the crop seeds (budding rate>85%), cover them with 0.2 cm thick soil, and keep the plants for future use when they grow to have about 4-5 leaves. Each compound is dissolved in N,N-dimethylformamide at doses of 75 g/ha or 150 g/ha and diluted with distilled water containing 0.1% tween-80 emulsifier to form 0.1 g/L (75 g/ha) solution and 0.2 g/L (150 g/ha) solution respectively. The solutions are sprayed through an automatic spray tower. After the solutions on weed leaves are dried in the air, the flowerpots are moved into a greenhouse for cultivation. The result is investigated 15 days later.
row,SMILES,"inhibition ratio, Maize (crop safety) [%]"
1,Cc1ccccc1-n1c(=O)c2cc(C(=O)C3=C(O)CCCC3=O)ccc2n(C)c1=O [Compound 20],0
2,Cn1c(=O)n(-c2ccccc2Cl)c(=O)c2cc(C(=O)C3=C(O)CC(C)(C)CC3=O)ccc21 [Compound 6],0
3,Cc1c(C(=O)C2=C(O)CC(C)(C)CC2=O)ccc2c1c(=O)n(-c1ccccc1C(F)(F)F)c(=O)n2C [Compound 91],0

# Same assay, conditions: dose 150 g/ha, plants with about 4-5 leaves, investigated 15 days later
row,SMILES,"inhibition ratio, Maize (crop safety) [%]"
1,Cc1ccccc1-n1c(=O)c2cc(C(=O)C3=C(O)CCCC3=O)ccc2n(C)c1=O [Compound 20],15
2,Cn1c(=O)n(-c2ccccc2Cl)c(=O)c2cc(C(=O)C3=C(O)CC(C)(C)CC3=O)ccc21 [Compound 6],15
3,Cc1c(C(=O)C2=C(O)CC(C)(C)CC2=O)ccc2c1c(=O)n(-c1ccccc1C(F)(F)F)c(=O)n2C [Compound 91],10

# Test system: wheat
# Test: Crop safety test (pot culture method)
# Type: in vivo
# Settings: dose 75 g/ha, plants with about 4-5 leaves, investigated 15 days later
# From the text: as §2
row,SMILES,"inhibition ratio, Wheat (crop safety) [%]"
1,Cc1ccccc1-n1c(=O)c2cc(C(=O)C3=C(O)CCCC3=O)ccc2n(C)c1=O [Compound 20],0
2,Cn1c(=O)n(-c2ccccc2Cl)c(=O)c2cc(C(=O)C3=C(O)CC(C)(C)CC3=O)ccc21 [Compound 6],0
3,Cc1c(C(=O)C2=C(O)CC(C)(C)CC2=O)ccc2c1c(=O)n(-c1ccccc1C(F)(F)F)c(=O)n2C [Compound 91],0

# Same assay, conditions: dose 150 g/ha, plants with about 4-5 leaves, investigated 15 days later
row,SMILES,"inhibition ratio, Wheat (crop safety) [%]"
1,Cc1ccccc1-n1c(=O)c2cc(C(=O)C3=C(O)CCCC3=O)ccc2n(C)c1=O [Compound 20],0
2,Cn1c(=O)n(-c2ccccc2Cl)c(=O)c2cc(C(=O)C3=C(O)CC(C)(C)CC3=O)ccc21 [Compound 6],0
3,Cc1c(C(=O)C2=C(O)CC(C)(C)CC2=O)ccc2c1c(=O)n(-c1ccccc1C(F)(F)F)c(=O)n2C [Compound 91],10
